Measured values as given in publication PMC11520566, “Discovery of pyrazole-based analogs as CDK2 inhibitors with apoptotic-inducing activity: design, synthesis and molecular dynamics study” (RSC Advances, 2024).

What was measured:
UACC-257 = experiment: NCI 60 single dose screen, Melanoma; type: cell-based, human; details: single dose 10 μM
Method: (§1) The newly synthesized pyrazoles 2a–g, 7a–d, 8a and b, 9, and 10 were submitted to the National Cancer Institute (NCI) Developmental Therapeutics Program (http://www.dtp.nci.nih.gov) for assessment of their potential antiproliferative activity against a panel of NCI 60 cancer cell lines. All compounds were approved for screening against the approved 60 cancer cell lines at a single dose of 10 μM. The human cancer cell lines were derived from 9 variant cancer types including leukemia, melanoma, lung, colon, CNS, ovarian, renal, prostate and breast cancers. The results are presented as percentage of growth inhibition (GI%) of the screened compounds against the full panel of cell lines.
(§2) Under sterile conditions, the cell lines were grown in RPMI 1640 media (Gibco, NY, USA) supplemented with 10% fetal bovine serum (Biocell, CA, USA), and […] cell/mL was used to test the growth inhibition activity of the synthesized compounds. The compounds with concentrations ranging from 0.01 to 100 μM were prepared in phosphate buffer saline. Each compound was initially solubilized in dimethyl sulfoxide (DMSO); however, each final dilution contained less than 1% DMSO. Solutions of different concentrations (0.2 mL) were pipetted into the separate well of a microtiter tray in duplicate. Cell culture (1.8 mL) containing a cell population of […] cells per mL was pipetted into each well. Controls, containing only phosphate buffer saline and DMSO at identical dilutions, were also prepared in the same manner. These cultures were incubated in a humidified incubator at 37 °C. The incubator was supplied with 5% CO2 atmosphere. After 48 h, the cells in each well were diluted 10 times with saline and counted using a Coulter counter. The counts were corrected for the dilution.[34]

A549/ATCC = experiment: NCI 60 five dose assay, Non-small cell lung cancer; type: cell-based, human
NCI/ADR-RES = experiment: NCI 60 five dose assay, Ovarian cancer; type: cell-based, human
DU-145 = experiment: NCI 60 five dose assay, Prostate cancer; type: cell-based, human
SW-620 = experiment: NCI 60 five dose assay, Colon cancer; type: cell-based, human
COLO 205 = experiment: NCI 60 five dose assay, Colon cancer; type: cell-based, human
PC-3 = experiment: NCI 60 five dose assay, Prostate cancer; type: cell-based, human
OVCAR-4 = experiment: NCI 60 five dose assay, Ovarian cancer; type: cell-based, human
UO-31 = experiment: NCI 60 five dose assay, Renal cancer; type: cell-based, human
SF-295 = experiment: NCI 60 five dose assay, CNS cancer; type: cell-based, human
CCRF-CEM = experiment: NCI 60 single dose screen, Leukemia; type: cell-based, human; details: single dose 10 μM
Method: as §1, §2

RPMI-8226 = experiment: NCI 60 single dose screen, Leukemia; type: cell-based, human; details: single dose 10 μM
Method: as §1, §2

HCT-116 cell line = experiment: MTT cell viability assay; type: cell-based; details: Homo sapiens, read-out: IC50 (cytotoxicity, MTT)
OVCAR-5 = experiment: NCI 60 five dose assay, Ovarian cancer; type: cell-based, human
K-562 = experiment: NCI 60 five dose assay, Leukemia; type: cell-based, human
U251 = experiment: NCI 60 five dose assay, CNS cancer; type: cell-based, human
NCI-H522 = experiment: NCI 60 five dose assay, Non-small cell lung cancer; type: cell-based, human
HT29 = experiment: NCI 60 single dose screen, Colon cancer; type: cell-based, human; details: single dose 10 μM
Method: as §1, §2

HCT-116 = experiment: NCI 60 single dose screen, Colon cancer; type: cell-based, human; details: single dose 10 μM
Method: as §1, §2

KM12 = experiment: NCI 60 single dose screen, Colon cancer; type: cell-based, human; details: single dose 10 μM
Method: as §1, §2

[1] = Homo sapiens, read-out: LC50 (the source's name)

In the case of CC(=NNc1ccc(S(N)(=O)=O)cc1)c1ccc(NN=C2C(=O)NN=C2Nc2ccccc2)cc1 [Compound 4, 4-(2-(1-(4-(2-(5-oxo-3-(phenylamino)-1,5-dihydro-4H-pyrazol-4-ylidene)hydrazinyl)phenyl)ethylidene)hydrazinyl)benzene sulfonamide], the GI% (UACC-257) is reported as 94.37%, the GI50 (A549/ATCC; Homo sapiens) is reported as 19.4 µM and the CC50 (A549/ATCC; [1]) is reported as greater than 100 µM. For the same compound, the “Percent Growth” value (A549/ATCC; Log10 Concentration -4.0 Molar) was 7%, the “Percent Growth” value (A549/ATCC; Log10 Concentration -5.0 Molar) was 67% and the “Percent Growth” value (A549/ATCC; Log10 Concentration -6.0 Molar) was 100%. For the same compound, the “Percent Growth” value (A549/ATCC; Log10 Concentration -7.0 Molar) was 108%, the “Percent Growth” value (A549/ATCC; Log10 Concentration -8.0 Molar) was 100% and the GI50 (NCI/ADR-RES; Homo sapiens) was greater than 100 µM. For the same compound, the CC50 (NCI/ADR-RES; [1]) was greater than 100 µM, the “Percent Growth” value (NCI/ADR-RES; Log10 Concentration -4.0 Molar) was 65% and the “Percent Growth” value (NCI/ADR-RES; Log10 Concentration -5.0 Molar) was 86%. The “Percent Growth” value (NCI/ADR-RES; Log10 Concentration -6.0 Molar) was 96%, the “Percent Growth” value (NCI/ADR-RES; Log10 Concentration -7.0 Molar) was 101% and the “Percent Growth” value (NCI/ADR-RES; Log10 Concentration -8.0 Molar) was 97%. The GI50 (DU-145; Homo sapiens) was 3.21 µM, the CC50 (DU-145; [1]) was 32.2 µM and the “Percent Growth” value (DU-145; Log10 Concentration -4.0 Molar) was -100%. The “Percent Growth” value (DU-145; Log10 Concentration -5.0 Molar) was 2%, the “Percent Growth” value (DU-145; Log10 Concentration -6.0 Molar) was 99% and the “Percent Growth” value (DU-145; Log10 Concentration -7.0 Molar) was 106%. The “Percent Growth” value (DU-145; Log10 Concentration -8.0 Molar) was 100%, the GI50 (SW-620; Homo sapiens) was 3.18 µM and the CC50 (SW-620; [1]) was 58.8 µM. For the same compound, the “Percent Growth” value (SW-620; Log10 Concentration -4.0 Molar) was -67%, the “Percent Growth” value (SW-620; Log10 Concentration -5.0 Molar) was 7% and the “Percent Growth” value (SW-620; Log10 Concentration -6.0 Molar) was 93%. The “Percent Growth” value (SW-620; Log10 Concentration -7.0 Molar) was 102%, the “Percent Growth” value (SW-620; Log10 Concentration -8.0 Molar) was 102% and the GI50 (COLO 205; Homo sapiens) was 3.28 µM. The CC50 (COLO 205; [1]) was 34.6 µM, the “Percent Growth” value (COLO 205; Log10 Concentration -4.0 Molar) was -100% and the “Percent Growth” value (COLO 205; Log10 Concentration -5.0 Molar) was 9%. The “Percent Growth” value (COLO 205; Log10 Concentration -6.0 Molar) was 94%, the “Percent Growth” value (COLO 205; Log10 Concentration -7.0 Molar) was 105% and the “Percent Growth” value (COLO 205; Log10 Concentration -8.0 Molar) was 101%. The GI50 (PC-3; Homo sapiens) was 3.06 µM, the CC50 (PC-3; [1]) was 35.8 µM and the “Percent Growth” value (PC-3; Log10 Concentration -4.0 Molar) was -95%. For the same compound, the “Percent Growth” value (PC-3; Log10 Concentration -5.0 Molar) was 5%, the “Percent Growth” value (PC-3; Log10 Concentration -6.0 Molar) was 92% and the “Percent Growth” value (PC-3; Log10 Concentration -7.0 Molar) was 95%. The “Percent Growth” value (PC-3; Log10 Concentration -8.0 Molar) was 93%, the GI50 (OVCAR-4; Homo sapiens) was 2.84 µM and the CC50 (OVCAR-4; [1]) was 40.7 µM. For the same compound, the “Percent Growth” value (OVCAR-4; Log10 Concentration -4.0 Molar) was -80%, the “Percent Growth” value (OVCAR-4; Log10 Concentration -5.0 Molar) was -3% and the “Percent Growth” value (OVCAR-4; Log10 Concentration -6.0 Molar) was 94%. For the same compound, the “Percent Growth” value (OVCAR-4; Log10 Concentration -7.0 Molar) was 98%, the “Percent Growth” value (OVCAR-4; Log10 Concentration -8.0 Molar) was 94% and the GI50 (UO-31; Homo sapiens) was 19.4 µM. For the same compound, the CC50 (UO-31; [1]) was greater than 100 µM, the “Percent Growth” value (UO-31; Log10 Concentration -4.0 Molar) was 2% and the “Percent Growth” value (UO-31; Log10 Concentration -5.0 Molar) was 69%. The “Percent Growth” value (UO-31; Log10 Concentration -6.0 Molar) was 81%, the “Percent Growth” value (UO-31; Log10 Concentration -7.0 Molar) was 89% and the “Percent Growth” value (UO-31; Log10 Concentration -8.0 Molar) was 84%. The GI50 (SF-295; Homo sapiens) was 3.67 µM, the CC50 (SF-295; [1]) was 38.7 µM and the “Percent Growth” value (SF-295; Log10 Concentration -4.0 Molar) was -95%. The “Percent Growth” value (SF-295; Log10 Concentration -5.0 Molar) was 15%, the “Percent Growth” value (SF-295; Log10 Concentration -6.0 Molar) was 96% and the “Percent Growth” value (SF-295; Log10 Concentration -7.0 Molar) was 96%. The “Percent Growth” value (SF-295; Log10 Concentration -8.0 Molar) was 83%, the GI% (CCRF-CEM) was 96.41% and the GI% (RPMI-8226) was 96.53%. For the same compound, the IC50 (HCT-116 cell line) was 1.81 µM, the GI50 (OVCAR-5; Homo sapiens) was 11 µM and the CC50 (OVCAR-5; [1]) was 54.2 µM. For the same compound, the “Percent Growth” value (OVCAR-5; Log10 Concentration -4.0 Molar) was -88%, the “Percent Growth” value (OVCAR-5; Log10 Concentration -5.0 Molar) was 56% and the “Percent Growth” value (OVCAR-5; Log10 Concentration -6.0 Molar) was 93%. For the same compound, the “Percent Growth” value (OVCAR-5; Log10 Concentration -7.0 Molar) was 96%, the “Percent Growth” value (OVCAR-5; Log10 Concentration -8.0 Molar) was 95% and the GI50 (K-562; Homo sapiens, K562) was 2.29 µM. For the same compound, the CC50 (K-562; Homo sapiens, K562, read-out: LC50 (the source's name)) was 22.8 µM, the “Percent Growth” value (K-562; Log10 Concentration -4.0 Molar) was -100% and the “Percent Growth” value (K-562; Log10 Concentration -5.0 Molar) was -22%. The “Percent Growth” value (K-562; Log10 Concentration -6.0 Molar) was 90%, the “Percent Growth” value (K-562; Log10 Concentration -7.0 Molar) was 87% and the “Percent Growth” value (K-562; Log10 Concentration -8.0 Molar) was 88%. For the same compound, the GI50 (U251; Homo sapiens, U-251) was 1.88 µM, the CC50 (U251; Homo sapiens, U-251, read-out: LC50 (the source's name)) was 7.51 µM and the “Percent Growth” value (U251; Log10 Concentration -4.0 Molar) was -100%. For the same compound, the “Percent Growth” value (U251; Log10 Concentration -5.0 Molar) was -71%, the “Percent Growth” value (U251; Log10 Concentration -6.0 Molar) was 96% and the “Percent Growth” value (U251; Log10 Concentration -7.0 Molar) was 105%. For the same compound, the “Percent Growth” value (U251; Log10 Concentration -8.0 Molar) was 95%, the GI50 (NCI-H522; Homo sapiens) was 2.17 µM and the CC50 (NCI-H522; [1]) was 74.8 µM. For the same compound, the “Percent Growth” value (NCI-H522; Log10 Concentration -4.0 Molar) was -52%, the “Percent Growth” value (NCI-H522; Log10 Concentration -5.0 Molar) was -36% and the “Percent Growth” value (NCI-H522; Log10 Concentration -6.0 Molar) was 94%. The “Percent Growth” value (NCI-H522; Log10 Concentration -7.0 Molar) was 97%, the “Percent Growth” value (NCI-H522; Log10 Concentration -8.0 Molar) was 89% and the GI% (HT29) was 95.46%. The GI% (HCT-116) was 99.70% and the GI% (KM12) was 96.31%.
